# According to patent publication US11096961B2, “Pharmaceutical composition for suppressing spinal cord ischemic disorder” (SUMITOMO SEIKA CHEMICALS CO., LTD., priority 2019, dated 2021):
# Assays:
# [1] = tested on: mouse transient spinal cord ischemia model; assay: Measurement of spinal cord blood flow (SCBF) after release of blood flow interception; type: in vivo; details: inhalation of 5% carbon dioxide gas from cannulation until end of model creation; SCBF before interception = 100%; measured for 480 seconds after release of interception; compared with 100% oxygen control; FIG. 1
# Description: (§1) An 8 to 12-week-old male mouse was used for creating a mouse transient spinal cord ischemia model. The mouse was subjected to endotracheal intubation under anesthesia by the inhalation of isoflurane and cannulation for measuring blood pressure in the left femoral artery. The cervix and a part of the sternum were incised, and the left common carotid artery, the aortic arch, and the left subclavian artery were exposed. The blood flow was intercepted at the aortic arch and the left subclavian artery base using two vascular clips. The vascular clips were removed 4 minutes and 30 seconds after the blood flow interception, and the blood flow interception was released. […]
# (§2) The inhalation of 5% carbon dioxide gas was started from the cannulation in the process of creating the mouse transient spine ischemia model, and the inhalation was continued until the end of the model creation. […] The spinal cord blood flow (SCBF) before the blood flow interception was defined as 100%, and the spinal cord blood flow was measured for 480 seconds after the blood flow interception was released. A known method (Basso et al., J Nurotrauma, 23(5): 635-59, 2006) was partially modified, and the motor functions were continuously evaluated by the Basso Mouse Scale (BMS) 24, 48 and 72 hours after spinal cord ischemia. […]
# [2] = tested on: mouse transient spinal cord ischemia model; assay: Evaluation of motor function by Basso Mouse Scale (BMS) after spinal cord ischemia; type: in vivo; details: inhalation of 5% carbon dioxide gas, compared with 100% oxygen controls, FIGS. 2A-2B
# Description: as §1, §2
structure (smiles),measurement,setting,value
"O=C=O [5% carbon dioxide gas, carbon dioxide]",spinal cord blood flow (SCBF) in the ischemic state,[1],improved more rapidly
same,decreases in the motor functions (Basso Mouse Scale),"[2]; BMS 24, 48 and 72 hours after spinal cord ischemia",hardly observed
same,onset of late-onset paraplegia,"[2]; BMS=0 to 5 is paraplegia or death, 24, 48 and 72 hours after ischemia",suppressed remarkably
